Measured values as given in patent US7235557B2, “Compounds and their uses” (MGI GP, Inc., priority 2000, dated 2007).

target: T1, purified recombinant human PARP (Homo sapiens, UniProt P09874); assay: PARP enzyme assay (IC50); assay type: biochemical; conditions: IC50 (μM), approximate IC50 values, [3H]NAD
T1 construct: purchased Trevigan (Gaithersburg, Md.)
Method: The reaction is initiated by adding enzyme and incubating the mixture at 25° C. After 2 minutes of incubation, the reaction is terminated by adding 500 microliters of ice cold 30% (w/v) trichloroacetic acid. The precipitate formed is transferred onto a glass fiber filter Packard Unifilter-GF/C) and washed three times with 70% ethanol. After the filter is dried, the radioactivity is determined by scintillation counting.

T1 sequence (P09874 whole entry): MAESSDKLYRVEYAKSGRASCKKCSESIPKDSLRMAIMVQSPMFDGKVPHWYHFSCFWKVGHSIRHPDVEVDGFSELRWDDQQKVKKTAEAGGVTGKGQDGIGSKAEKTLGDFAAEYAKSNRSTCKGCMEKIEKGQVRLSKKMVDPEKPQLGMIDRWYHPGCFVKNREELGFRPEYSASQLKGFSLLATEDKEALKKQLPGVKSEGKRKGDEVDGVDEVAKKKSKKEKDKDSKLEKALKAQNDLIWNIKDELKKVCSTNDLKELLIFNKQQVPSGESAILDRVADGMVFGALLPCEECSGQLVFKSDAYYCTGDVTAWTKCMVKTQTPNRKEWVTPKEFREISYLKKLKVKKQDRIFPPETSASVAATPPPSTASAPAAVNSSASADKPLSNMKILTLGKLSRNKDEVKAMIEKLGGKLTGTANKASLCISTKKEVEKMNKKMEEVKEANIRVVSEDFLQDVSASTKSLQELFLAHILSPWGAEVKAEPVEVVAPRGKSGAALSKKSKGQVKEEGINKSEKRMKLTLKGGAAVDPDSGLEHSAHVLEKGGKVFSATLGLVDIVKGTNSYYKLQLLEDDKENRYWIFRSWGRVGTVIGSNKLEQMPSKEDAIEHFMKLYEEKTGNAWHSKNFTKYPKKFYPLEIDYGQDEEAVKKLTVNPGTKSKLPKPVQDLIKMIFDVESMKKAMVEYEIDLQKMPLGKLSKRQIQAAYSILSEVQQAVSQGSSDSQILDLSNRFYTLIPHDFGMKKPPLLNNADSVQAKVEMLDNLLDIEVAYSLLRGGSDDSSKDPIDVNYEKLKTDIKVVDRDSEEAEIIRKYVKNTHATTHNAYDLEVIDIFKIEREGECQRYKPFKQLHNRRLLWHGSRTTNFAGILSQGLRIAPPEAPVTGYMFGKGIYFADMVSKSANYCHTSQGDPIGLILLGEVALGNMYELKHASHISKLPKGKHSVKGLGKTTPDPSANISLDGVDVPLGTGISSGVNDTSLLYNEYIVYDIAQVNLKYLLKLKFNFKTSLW

Row | IC50 [µM] | Structure (SMILES)
1 | 0.088 | CN(Cc1ccccc1)Cc1nc2cccc3c2n1CCNC3=O [drawing 162]
2 | 0.141 | Cc1nc2cccc3c2n1CCNC3=O
3 | 0.166 | CN(Cc1ccccc1)Cc1nc2cccc3c2n1CCNC3=O [drawing 179]

Row | Structure (SMILES) | IC50 [µM]
4 | O=c1[nH]c2ccc(N3C[C@@H]4C[C@H]3CN4)nc2c2ccccc12 | 0.042

same assay, conditions: approximate IC50 values, [3H]NAD, read-out: IC50

Row | Structure (SMILES) | IC50 [µM]
5 | CC(C)(C)OC(=O)n1cc2c3c(cccc31)C(=O)NN=C2 | 1.2
6 | CCN(CC)Cc1nc2cccc3c2n1CCNC3=O | 0.535
7 | O=c1[nH]c2ccc(NCCN3CCOCC3)nc2c2ccccc12 | 0.339
8 | O=C1NCCn2c(-c3ccccc3F)nc3cccc1c32 | 0.329
9 | O=C1NCCn2c(-c3cccc(C(=O)N4CCN(Cc5ccc6c(c5)OCO6)CC4)c3)nc3cccc1c32 | 0.635
10 | CC(C)N1CCN(c2ccc3[nH]c(=O)c4ccccc4c3n2)CC1 | 0.179
11 | COC(=O)C1CN(Cc2nc3cccc4c3n2CCNC4=O)CCC1=O (stereo not drawn) | 0.441
12 | O=C1NCCn2c(-c3ccc(F)cc3)nc3cccc1c32 | 0.201
13 | CC(C)(C)OC(=O)[C@@H]1CCCN1Cc1nc2cccc3c2n1CCNC3=O | 0.349
14 | O=C1NCCc2c[nH]c3cccc1c23 | 0.366
15 | O=c1[nH]c2ccc(Cl)nc2c2ccccc12 | 2.1
16 | CCCN(CCC)Cc1nc2cccc3c2n1CCNC3=O | 0.204
17 | CN(C)CCN(C)Cc1nc2cccc3c2n1CCNC3=O | 0.288
18 | O=C1NCCN2CCc3cccc1c32 | 2.41
19 | Cn1cc2c3c(cccc31)C(=O)NCC2O (stereo not drawn) | 0.79
20 | O=c1[nH]c2ccc(OCc3ccccc3)nc2c2ccccc12 | 20
21 | O=C(NCCN1CCOCC1)c1cccc(-c2nc3cccc4c3n2CCNC4=O)c1 | 0.448
22 | CN(C)CCCN(C)Cc1nc2cccc3c2n1CCNC3=O | 0.473
23 | CN(Cc1nc2cccc3c2n1CCNC3=O)c1ccccc1 | 0.28
24 | O=C1NCCn2c(O)nc3cccc1c32 | 1.4
25 | O=C1NN=C(CN2CCN(Cc3ccccc3)CC2)c2c[nH]c3cccc1c23 | 0.141
26 | CC(C)(C)OC(=O)N1CCN(C(=O)c2cccc(-c3nc4cccc5c4n3CCNC5=O)c2)CC1 | 0.583
27 | COC(=O)C1CN(C(=O)c2cccc(-c3nc4cccc5c4n3CCNC5=O)c2)CCC1=O (stereo not drawn) | 0.375
28 | CN(C)CCN(Cc1ccccc1)Cc1nc2cccc3c2n1CCNC3=O | 0.153
29 | O=C1NCCn2c(CN3CCCCCC3)nc3cccc1c32 | 1
30 | CC(C)(C)OC(=O)n1cc2c3c(cccc31)C(=O)NCC2 | 20

Row | Structure (SMILES) | IC50 [µM]
31 | O=C1NCCn2c(-c3ccc4ccccc4n3)nc3cccc1c32 | 0.299
32 | O=C1NCCn2c(C=C(c3ccccc3)c3ccccc3)nc3cccc1c32 | 0.33
33 | O=C1NCCn2c(CN3CCN(Cc4ccccc4)CC3)nc3cccc1c32 | 2.19
34 | O=C(O)c1ccc(-c2nc3cccc4c3n2CCNC4=O)cc1 | 1.19
35 | O=C1NCCn2ccc3cccc1c32 | 0.7
36 | O=C(CN1CCC(N2CCCC2)CC1)Nc1cnc2c(c1)[nH]c(=O)c1ccccc12 | 0.134
37 | CCN(CC)CCNC(=O)c1cccc(-c2nc3cccc4c3n2CCNC4=O)c1 | 0.449
38 | COc1ccc(N(C)Cc2nc3cccc4c3n2CCNC4=O)cc1 | 0.121
39 | CCCCCCN(CCCCCC)Cc1nc2cccc3c2n1CCNC3=O | 0.915
40 | O=C1NCC(c2ccccc2)c2c[nH]c3cccc1c23 (stereo not drawn) | 0.176
41 | O=C1NCCn2c(CN3CCOCC3)nc3cccc1c32 | 0.523
42 | Cn1cc2c3c(cccc31)C(=O)NN=C2 | 0.146
43 | CN(Cc1nc2cccc3c2n1CCNC3=O)C1CCCCC1 | 0.46
44 | Nc1cnc2c(c1)[nH]c(=O)c1ccccc12 | 0.18
45 | O=C1NN=Cn2cnc3cccc1c32 | 20
46 | COc1ccc2[nH]c(=O)c3ccccc3c2n1 | 0.216
47 | O=C1CCN(Cc2nc3cccc4c3n2CCNC4=O)CC1 | 0.329
48 | O=C(CN1CCC(N2CCCC2)CC1)Nc1ccc2[nH]c(=O)c3ccccc3c2n1 | 0.142
49 | O=C1NN=Cc2cn(Cc3ccccc3)c3cccc1c23 | 13
50 | CN(C)CC(=O)Nc1cnc2c(c1)[nH]c(=O)c1ccccc12 | 0.165
51 | CN1CCN(Cc2nc3cccc4c3n2CCNC4=O)CC1 | 1.57
52 | CC(C)N(Cc1nc2cccc3c2n1CCNC3=O)C(C)C | 0.647
53 | O=C1NCCn2c(CN3CCc4ccccc4C3)nc3cccc1c32 | 0.193
54 | CCCCCN(CCCCC)Cc1nc2cccc3c2n1CCNC3=O | 0.915
55 | O=C1NCCn2c(-c3cc(O)c(O)c(O)c3)nc3cccc1c32 | 0.324
56 | O=C1NCCn2c(CN(CCc3ccccc3)Cc3ccccc3)nc3cccc1c32 | 10.5

Row | Structure (SMILES) | IC50 [µM]
57 | CN(C)CCNC(=O)c1cccc(-c2nc3cccc4c3n2CCNC4=O)c1 | 0.246
58 | O=c1[nH]c2cc(Cl)cnc2c2ccccc12 | 0.292
59 | O=C1NCCn2c(CN3CCCCCCC3)nc3cccc1c32 | 0.6
60 | O=C1NCCn2c(CN3CCCc4ccccc43)nc3cccc1c32 | 0.818
61 | O=C1NCCn2c(COCc3ccccc3)nc3cccc1c32 | 0.434
62 | Cn1cc(-c2nc3cccc4c3n2CCNC4=O)c2ccccc21 | 0.268
63 | CCCCN(CCCC)Cc1nc2cccc3c2n1CCNC3=O | 1.75
64 | CN(C)CCCN(C)C(=O)c1cccc(-c2nc3cccc4c3n2CCNC4=O)c1 | 0.199
65 | CN(CCC1CCCN1C)C(=O)c1cccc(-c2nc3cccc4c3n2CCNC4=O)c1 (stereo not drawn) | 1.24
66 | CC(C)(C)OC(=O)N1CCN(Cc2nc3cccc4c3n2CCNC4=O)CC1 | 0.266
67 | O=C1NCCn2cnc3cccc1c32 | 0.299
68 | O=C1NCCn2c(CN(Cc3ccccc3)Cc3ccccc3)nc3cccc1c32 | 0.218
69 | O=C1NCCn2c(C3CCCCC3)nc3cccc1c32 | 0.204
70 | O=C1NCC(c2ccc(F)cc2)c2c[nH]c3cccc1c23 (stereo not drawn) | 0.427
71 | COC1CNC(=O)c2cccc3c2c1cn3C (stereo not drawn) | 4.6
72 | O=C(O)CCc1nc2cccc3c2n1CCNC3=O | 1.44
73 | CN(C)CCCOc1ccc(-c2nc3cccc4c3n2CCNC4=O)cc1 | 0.237
74 | O=C1NCCn2c(Cn3ccnc3)nc3cccc1c32 | 0.738
75 | O=C1NN=Cc2c(Br)n(Cc3ccccc3)c3cccc1c23 | 20
76 | CC(Cc1nc2cccc3c2n1CCNC3=O)c1ccccc1 (stereo not drawn) | 0.13
77 | COc1ccc2c(c1)c(=O)[nH]c1cccnc12 | 4.15
78 | O=C1NCCn2c(-c3ccc(-c4ccccc4Cl)o3)nc3cccc1c32 | 0.145
79 | COc1ccc(CC(C)c2nc3cccc4c3n2CCNC4=O)cc1 (stereo not drawn) | 0.128
80 | O=C1NCCn2c(CN3CCCCC3)nc3cccc1c32 | 0.801

Next, values leading:

Row | IC50 [µM] | Structure (SMILES)
81 | 0.12 | O=C1NCCn2c(CN3CCN(Cc4ccc5c(c4)OCO5)CC3)nc3cccc1c32
82 | 0.115 | O=C1NCCn2c(CN3CC4CC3CN4Cc3ccccc3)nc3cccc1c32 (stereo not drawn)
83 | 0.114 | O=c1[nH]c2ccc(O)nc2c2ccccc12
84 | 0.111 | CCC(=O)Nc1cnc2c(c1)[nH]c(=O)c1ccccc12
85 | 0.11 | Cc1ccc(-c2nc3cccc4c3n2CCNC4=O)cc1
86 | 0.108 | CCOC(=O)[C@@H]1C[C@H]1c1nc2cccc3c2n1CCNC3=O
87 | 0.108 | O=C1NCCn2c(-c3ccco3)nc3cccc1c32
88 | 0.106 | O=C1NCCn2c(-c3cccc(Br)c3)nc3cccc1c32
89 | 0.098 | CN(C)CC(=O)Nc1ccc2[nH]c(=O)c3ccccc3c2n1
90 | 0.098 | O=C1NN=C(CN2CCC(N3CCCC3)CC2)c2c[nH]c3cccc1c23
91 | 0.097 | Cc1cccc(-c2nc3cccc4c3n2CCNC4=O)c1
92 | 0.094 | O=C1NCCn2c(-c3ccc(Br)s3)nc3cccc1c32
93 | 0.089 | O=C1NCCn2c(-c3cc(O)cc(O)c3)nc3cccc1c32
94 | 0.086 | CC(C)N1CCN(CC(=O)Nc2cnc3c(c2)[nH]c(=O)c2ccccc23)CC1
95 | 0.073 | O=C1NN=Cc2c(-c3ccc(F)cc3)[nH]c3cccc1c23
96 | 0.071 | O=C1NCCn2c(/C=C/c3ccccc3)nc3cccc1c32
97 | 0.068 | CC(=O)OCc1ccc(-c2nc3cccc4c3n2CCNC4=O)o1
98 | 0.068 | CN(C)Cc1nc2cccc3c2n1CCNC3=O
99 | 0.064 | O=C1NN=C(Cc2ccccc2)c2c[nH]c3cccc1c23
100 | 0.061 | O=C1NCCn2c(-c3cc(F)cc(F)c3)nc3cccc1c32
101 | 0.061 | O=C1NC=C(Br)c2c[nH]c3cccc1c23
102 | 0.06 | CCN1CCN(CC2=NNC(=O)c3cccc4[nH]cc2c34)CC1

Row | IC50 [µM] | Structure (SMILES)
103 | 0.058 | Cn1c(-c2ccccc2)c2c3c(cccc31)C(=O)NCC2=O
104 | 0.054 | O=C1NCCn2c(-c3ccc(Br)cc3)nc3cccc1c32
105 | 0.051 | O=C1NCCc2c(Br)[nH]c3cccc1c23
106 | 0.047 | Cn1c(-c2ccccc2)c2c3c(cccc31)C(=O)NN=C2
107 | 0.045 | O=c1[nH]c2ccc(N3CCNCC3)nc2c2ccccc12
108 | 0.044 | O=C1NCCn2c(C#Cc3ccccc3)nc3cccc1c32
109 | 0.037 | O=C1NN=C(CN2CCOCC2)c2c[nH]c3cccc1c23
110 | 0.037 | CN1CCN(CC2=NNC(=O)c3cccc4[nH]cc2c34)CC1
111 | 0.037 | O=C1NN=C(CN2CCN(c3ccccn3)CC2)c2c[nH]c3cccc1c23 [drawing 106]
112 | 0.035 | O=C1CNC(=O)c2cccc3[nH]cc1c23
113 | 0.035 | CN(C)CCN(C)CC1=NNC(=O)c2cccc3[nH]cc1c23
114 | 0.034 | CCN(CC)CC1=NNC(=O)c2cccc3[nH]cc1c23
115 | 0.033 | O=C1NN=C(CN2CCCC2)c2c[nH]c3cccc1c23
116 | 0.028 | Cn1cc2c3c(cccc31)C(=O)NCC2=O
117 | 0.027 | O=C1NN=C(CN2CCCCC2)c2c[nH]c3cccc1c23
118 | 0.026 | O=C1NN=Cc2c(Br)[nH]c3cccc1c23
119 | 0.025 | O=C1NN=C(CN2CCN(c3ccccn3)CC2)c2c[nH]c3cccc1c23 [drawing 105]
120 | 0.021 | O=C1NCCn2c(-c3ccc([N+](=O)[O-])o3)nc3cccc1c32
121 | 0.021 | O=C1NN=C(c2ccccc2)c2c[nH]c3cccc1c23
122 | 0.018 | O=C1NN=Cc2c[nH]c3cccc1c23
123 | 0.01 | O=C1NN=Cc2c(-c3ccccc3)[nH]c3cccc1c23
